Patent US20110294686A1, “EGFR INHIBITOR THERAPY RESPONSIVENESS” (priority 2008, published 2011)
Read-outs that look alike come from different tables or passages of the source.

How the values were obtained:
[1] = system: Metastatic NSCLC patients; details: for Response to gefitinib therapy: metastatic NSCLC
[2] = system: chemo-refractory advanced stage NSCLC; details: phase II clinical trials; cited from earlier work
[3] = EIF3H FISH negative patients (mean <2.75)
[4] = EIF3H FISH positive patients (mean ≧2.75)
[5] = MYC FISH negative patients (mean <2.79)
[6] = MYC FISH positive patients (mean ≧2.79)

COc1cc2ncnc(Nc3ccc(F)c(Cl)c3)c2cc1OCCCN1CCOCC1 [gefitinib]
response rate (RR) [1, 3]: 0% | time to progression (TTP) [1, 3]: 2.7 months | response rate (RR) [1, 4]: 32% | survival (OS) [1, 4]: 17.8 months | time to progression (TTP) [1, 4]: 4.4 months | Response to gefitinib therapy ([1]; EIF3H amplified patients (ratio EIF3H/CEP8>2)): 30% | Response to gefitinib therapy ([1]; EIF3H non amplified patients): 14% | response rate (RR) [1, 5]: 0% | time to progression (TTP) [1, 5]: 2.6 months | response rate (RR) [1, 6]: 31% | time to progression (TTP) [1, 6]: 4.4 months | Response to gefitinib therapy ([1]; MYC amplified patients): 25% | Response to gefitinib therapy ([1]; MYC non-amplified patients): 14% | patients responding to treatment [2]: 11-20%
